This is an account of results in patent US12419890B2, “Administration of sumo-activating enzyme inhibitor and checkpoint inhibitors” (Takeda Pharmaceutical Company Limited, priority 2019, dated 2025).

This assay concerns JC syngeneic mouse breast adenocarcinoma-derived subcutaneous tumor. As to the kind of experiment: JC Study 6: mouse JC syngeneic tumor model, individual tumor volume. It is filed as in vivo. The following applies: Compound I-263a 7.5 mg/kg IV or anti-mPD-1 10 mg/kg IP, BIWx3 till Day 14. How it is done:
JC Study 6: JC is a mouse breast adenocarcinoma cell line. JC mouse syngeneic tumor model was generated by subcutaneous inoculation with 0.2×10^6 JC cells (cell suspension) in 10 weeks old female BALB/c mice (Vital River Laboratory Animal Technology Co., Ltd., Beijing, China) in the flank. When the mean tumor volume reached approximately 45 mm^3, the animals were randomized into one vehicle control and five treatment groups (n=8/group). Mice were then dosed with 20% HPbCD or Compound I-263a or anti-mouse PD-1 antibody over a 21-day period. Tumor growth and body weight were measured twice per week during the treatment and post-treatment periods, and mice were humanely euthanized once they had reached their humane endpoint.
Study 6: A 0.75 mg/mL stock solution of Compound I-263a was formulated weekly in 20% HPβCD and administered intravenously (IV) based on exact animal body weight on each day of treatment, using a dosing volume of 10 mL/kg body weight. Final doses received were 7.5 mg/kg. Dosing volume for Compound I-263a was 0.2 mL. […]
Tumors were measured twice weekly using vernier calipers. Tumor volumes were calculated using standard equation: V=W^2×L/2, where V=volume, W=width, and L=length for the tumor. […] Tumor size and body weight were measured twice a week for the duration of the study. […]

As to `Cc1sc(C(=O)c2cncnc2N[C@@H]2C[C@H](COS(N)(=O)=O)[C@@H](O)C2)cc1[C@@H]1NCCc2ccc(Cl)cc21` [Compound I-263a, [(1R,2S,4R)-4-{[5-({4-[(1R)-7-chloro-1,2,3,4-tetrahydroisoquinolin-1-yl]-5-methyl-2-thienyl}carbonyl)pyrimidin-4-yl]amino}-2-hydroxycyclopentyl]methyl sulfamate], the “tumor growth inhibition / antitumor activity” value (8 tumors/group) was “very little tumor growth inhibition”. In addition, the “tumors with slight growth delay” value (delay from day 16-18, out of 8 implanted) is “one”.
